Measured values from PMC9543091, “A bacterial chemoreceptor that mediates chemotaxis to two different plant hormones” (Environmental Microbiology, 2022).

How the values were obtained:
PcpI [1] = target: T1, PcpI (Pseudomonas putida, UniProt A0A4D6XHR0); test: isothermal titration calorimetry; assay type: binding
T1 construct: gene E6B08_28110; LBD (amino acids 38–174)
T1 sequence (A0A4D6XHR0 38-174): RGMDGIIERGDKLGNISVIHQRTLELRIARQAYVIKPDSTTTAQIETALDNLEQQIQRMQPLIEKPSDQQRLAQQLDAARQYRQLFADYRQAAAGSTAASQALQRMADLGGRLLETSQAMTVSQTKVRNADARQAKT

[2] = target: T2, E6B08_RS28125 (solute binding protein); test: isothermal titration calorimetry (and DSF); set-up: species or system Pseudomonas putida
T2 construct: recombinant from pET28b(+), without the predicted signal peptide

PcpI [3] = target: T1, PcpI; test: isothermal titration calorimetry; DSF Tm shift […]°C; assay type: binding
Excerpt: Exothermic heats were observed that decreased as protein saturation progressed

Row | SMILES | Kd [2] [µM] | also measured
1 | Cc1cccc(C(=O)O)c1 [3-methylbenzoate] |  | Kd (PcpI [1]; read-out: Kd): 91 ± 8 µM
2 | N=C(N)NCCC[C@H](N)C(=O)O [L-Arg] | 29.5 ± 3 | 
3 | N[C@@H](Cc1c[nH]cn1)C(=O)O [L-His] | 3.3 ± 0.3 | 
4 | NCCC[C@H](N)C(=O)O [L-ornithine] | 0.9 ± 0.1 | 
5 | O=C(O)c1ccccc1 [benzoate] |  | Kd (PcpI [1]): 171 ± 14 µM
6 | O=C(O)c1ccccc1O [salicylate] |  | Kd (PcpI [3]): 826 ± 34 µM
